Experiments:
[1] = test system: glutathione (GSH); assay: GSH content in treated A549 cells; type: cell-based, human; details: A549, 20 µM
Excerpt: (§1) Glutathione is an important intracellular molecule involved in carcinogen detoxification. On the other hand, its elevated state in cancer cells is often associated with resistance to chemotherapy. […] Because high levels of GSH are associated with cancer cell resistance, the GHS-depleting effect of compound 49 could be interesting due to new cancer chemosensitizer development. In the case of GST and GR, we hypothesize that an increase in the activity of both enzymes may be a compensatory mechanism induced by GSH depletion.
(§2) Both floating and adherent A549 cells were harvested at 24, 48, and 72 h after treatment with compound 49 (20 µM). SOD determination kit, Glutathione Peroxidase Cellular Activity Assay kit, Glutathione Reductase Assay Kit and Glutathione-S-transferase (GST) Assay Kit (all Sigma Aldrich, Germany) were used for the detection of relevant enzyme activity. Reduced glutathione (GSH) content was measured by the method originally described by Floreani et al.. Assays were performed on an M 501 single beam UV/VIS spectrophotometer (Spectronic Camspec Ltd., Leeds, United Kingdom). All measured parameters were calculated per milligram or gram of protein determined using the bicinchoninic acid assay.

[2] = test system: A549 cells; assay: MTT assay with chloroquine combination; type: cell-based, human; details: 49 20 μM + CQ 5, 10 and 20 μM, 72 h
Method: (§3) The MTT assay is a colorimetric method used to quantify the metabolic activity of cells. MTT (3-(4,5-di-methylthiazol-2-yl)2,5-diphenyltetrazolium bromide) (Sigma-Aldrich Chemie, Steinheim, Germany) is reduced by oxidoreductases in the cytosol of cells to light-absorbing formazan, the presence of which can be measured spectrophotometrically and determines the half-maximal inhibitory concentration (IC50). A549 cells were seeded in 95-well culture plates at a density of 5 × 10^3 per well. […]
We also incubated the cells with chloroquine at concentrations of 5–20 µM, which was added 1 h before the addition of the test substance, and cisplatin at concentrations of 3–10 µM. Cisplatin was added 24 h after the addition of 49. After 72 h of incubation, 10 µL of MTT (5 mg/mL) was added to each well. After 4 h, formazan crystals formed in the wells, which were dissolved in 100 uL of 10% SDS (sodium dodecyl sulfate). After 24 h, the absorbance was measured at a wavelength of 540 nm using an automated Cytation™ 3 Cell Imaging Multi-Mode Reader (Biotek, Winooski, VT, USA). These experiments were performed in three independent replicates.

[3] = test system: glutathione peroxidase (GPx); assay: GPx activity in treated A549 cells; type: cell-based, human; details: A549, 20 µM
Excerpt: as §1, §2

[4] = test system: A549 human lung cancer cells; assay: MTT assay with cis-platin alone or combined with compound 49; type: cell-based; details: A549, CisPt 10 μM + compound 49 20 μM
Excerpt: Furthermore, the depletion of GSH has been documented to potentiate the effect of anticancer drugs. Glutathione plays an important role in cisPt detoxification, so depletion of GSH is believed to potentiate the cisPt-induced DNA damage and increase the chemosensitivity of cancer cells to this anticancer drug. Due to the GSH-depleting effect of compound 49, we performed a set of experiments with cis-platin (CisPt) alone or in combination with compound 49 (Figure 9). […] Simultaneous treatments with CisPt (10 μM) and 20 μM of compound 49 caused a 59% reduction in cell growth.
as §3, with “(IC50).” for “(IC50). A549 cells were seeded in 95-well culture plates at a density of 5 × 10^3 per well.”
(§4) We also incubated the cells with chloroquine at concentrations of 5–20 µM, which was added 1 h before the addition of the test substance, and cisplatin at concentrations of 3–10 µM. […] After 24 h, the absorbance was measured at a wavelength of 540 nm using an automated Cytation™ 3 Cell Imaging Multi-Mode Reader (Biotek, Winooski, VT, USA). […]

[5] = test system: superoxide dismutase (SOD); assay: SOD activity in treated A549 cells; type: cell-based, human; details: A549, 20 µM
Excerpt: as §1, §2

[6] = test system: Jurkat; assay: MTT screening assay, Jurkat; type: cell-based; details: Homo sapiens, 72 h incubation
Excerpt: The ability of newly synthesized indole phytoalexins to suppress cell proliferation was screened in vitro on eight cancer cell lines including human colorectal carcinoma (Caco-2 and HCT116), human cervical cancer (HeLa), human breast adenocarcinoma (MCF-7, MDA-MB-231), human alveolar adenocarcinoma (A549) and human leukemic T cell lymphoma (Jurkat), and two non-cancer cell lines (MCF-10A, Cos-7).
The cell lines used for this study were Caco-2 (human colorectal adenocarcinoma cell line, American Type Culture Collection, Manassas, VA, USA (ATCC)), HCT116 (human colorectal carcinoma cells European Collection of Authenticated Cell Cultures, Salisbury, UK (ECACC)), HeLa (human cervical tumor cells, ECACC), MCF-7 (human breast tumor cells, ECACC), MDA-MB-231 (human breast tumor cells, ATCC), A549 (human lung carcinoma cells, ATCC), BLM (human melanoma lung metastases, a gift from prof. K. Smetana, Institute of Anatomy, Charles University in Prague), Jurkat (human leukemia cell line, ECACC), Cos-7 (immortalized monkey kidney fibroblasts, ATCC) and MCF-10A (human mammary epithelial cells, ATCC). Caco-2, MCF-7, BLM, Cos-7 and A549 cells were cultured in Dulbecco’s Modified Eagle’s Medium (DMEM) with high glucose and sodium pyruvate (GE Healthcare, Piscataway, NJ, USA); HCT116 lines, HeLa, MDA-MB-231 and Jurkat were cultured in RPMI-1640 medium; and MCF10A cells were cultured in high glucose DMEM/F12 (Dulbecco’s Modified Eagle’s Medium F12). The media were enriched with 10% fetal bovine serum (FBS) and a 1% solution of a mixture of antibiotics and antimycotics 1× HyClone™ (GE Healthcare, Chicago, IL, USA). DMEM/F12 medium was supplemented with epidermal growth factor (EGF) (20 ng/mL final), hydrocortisone (0.5 μg/mL final) and insulin (10 μg/mL final) (Sigma-Aldrich Chemie, Steinheim, Germany). The cells were placed in an incubator at 37 °C with humidified air containing 5% CO2.
as §3, §4

CC(C)(C)OC(=O)n1cc(CNC(=O)Nc2ccc(NC(=O)NCc3cn(C(=O)OC(C)(C)C)c4ccccc34)cc2)c2ccccc21 [Compound 49, N,N′-(1,4-phenylene)bis{N′-[1-(tert-butoxycarbonyl)indol-3-yl]methyl (urea)}]
GSH ([1]; 24 h): 0.395 ± 0.043 nmol/mg Prot | GSH ([1]; 48 h): 0.107 ± 0.015 nmol/mg Prot | GSH ([1]; 72 h): 0.228 ± 0.062 nmol/mg Prot | effect of chloroquine co-treatment on the antiproliferative effect of compound 49 (A549 cell survival) [2]: significantly potentiated | GPx ([3]; 24 h): 0.148 ± 0.021 μkat/mg Prot | GPx ([3]; 48 h): 0.139 ± 0.028 μkat/mg Prot | GPx ([3]; 72 h): 0.077 ± 0.038 μkat/mg Prot | reduction in cell growth, combination [4]: 59% | SOD ([5]; 24 h): 0.408 ± 0.24 μkat/mg Prot | SOD ([5]; 48 h): 0.526 ± 0.27 μkat/mg Prot | SOD ([5]; 72 h): 0.523 ± 0.38 μkat/mg Prot | IC50 [6]: 98.8 ± 1.7 µM

Reference: paper PMC9822133, “Design, Synthesis and Antiproliferative Evaluation of Bis-Indole Derivatives with a Phenyl Linker: Focus on Autophagy” (Molecules, 2022)
